Assay results as given in US20260132129A1 (Genesis Therapeutics, Inc., priority 2022, published 2026).
Structures can show the parent of a compound that is named as a salt.

Target: T1, PI3Kα H1047R (T47D cells) (Homo sapiens, UniProt P42336, H1047R)
T1 construct: endogenous in cells; host or cells: T47D cells
Assay: PI3Kα cellular assay: pAKT HTRF in T47D cells after EGF stimulation
Type: cell-based
Conditions: for IC50: T47D cells (PI3Kα H1047R), pAKT S473 HTRF
Procedure: SKBR3 or T47D cells are seeded in DMEM containing 10% FBS at 25k cells/well into 96-well cell culture format. Cells are incubated overnight at 37° C. in a 5% CO2 incubator and the following day cell media is aspirated, adherent cells are washed 1× with room temperature PBS prior to serum-free media application. Cells are returned to 37° C. 5% CO2 incubator and incubated a further 16 hrs. Compounds are added to serum starved adherent cells with a top dose of 10,000 nM and 3× multiple dose reductions for a minimum dose of 0.5 nM diluted in DMSO. Cell/compound incubation continues for 1 hr in a 37° C., 5% CO2 incubator prior to 10 minute PIK3CA stimulation with 20 ng/ml EGF. Cells treated with 0.1% DMSO and 20 ng/mL EGF are employed as negative control, cells treated with 10 uM Alpelisib and 20 ng/mL EGF are employed as a positive control. After 10 mins, plates are removed from incubator and cells are lysed with buffer and shaking 45 minutes. […] 384 well plate is left overnight at room temperature before reading HTRF on an Envision plate reader.
ND denotes value not determined with that assay for the specified compound; • for T47D (H1047R) selectivity over SKBR3 (WT): A denotes >20-fold; B denotes 20-fold≥value>5-fold; C denotes ≤5-fold. ND denotes value not determined with that assay for the specified compound; and • for T47D pAKT lipophilic efficiency (LiPE): A denotes >4; B denotes 4≥value>2; C denotes ≤2. ND denotes value not determined with that assay for the specified compound.

[1] = selectivity of T47D (H1047R) over SKBR3 (WT) pAKT IC50
[2] = 1 hr compound, 20 ng/ml EGF 10 min
[3] = selectivity T47D (H1047R) over SKBR3 (WT), pAKT HTRF

T1 sequence (P42336 whole entry H1047R): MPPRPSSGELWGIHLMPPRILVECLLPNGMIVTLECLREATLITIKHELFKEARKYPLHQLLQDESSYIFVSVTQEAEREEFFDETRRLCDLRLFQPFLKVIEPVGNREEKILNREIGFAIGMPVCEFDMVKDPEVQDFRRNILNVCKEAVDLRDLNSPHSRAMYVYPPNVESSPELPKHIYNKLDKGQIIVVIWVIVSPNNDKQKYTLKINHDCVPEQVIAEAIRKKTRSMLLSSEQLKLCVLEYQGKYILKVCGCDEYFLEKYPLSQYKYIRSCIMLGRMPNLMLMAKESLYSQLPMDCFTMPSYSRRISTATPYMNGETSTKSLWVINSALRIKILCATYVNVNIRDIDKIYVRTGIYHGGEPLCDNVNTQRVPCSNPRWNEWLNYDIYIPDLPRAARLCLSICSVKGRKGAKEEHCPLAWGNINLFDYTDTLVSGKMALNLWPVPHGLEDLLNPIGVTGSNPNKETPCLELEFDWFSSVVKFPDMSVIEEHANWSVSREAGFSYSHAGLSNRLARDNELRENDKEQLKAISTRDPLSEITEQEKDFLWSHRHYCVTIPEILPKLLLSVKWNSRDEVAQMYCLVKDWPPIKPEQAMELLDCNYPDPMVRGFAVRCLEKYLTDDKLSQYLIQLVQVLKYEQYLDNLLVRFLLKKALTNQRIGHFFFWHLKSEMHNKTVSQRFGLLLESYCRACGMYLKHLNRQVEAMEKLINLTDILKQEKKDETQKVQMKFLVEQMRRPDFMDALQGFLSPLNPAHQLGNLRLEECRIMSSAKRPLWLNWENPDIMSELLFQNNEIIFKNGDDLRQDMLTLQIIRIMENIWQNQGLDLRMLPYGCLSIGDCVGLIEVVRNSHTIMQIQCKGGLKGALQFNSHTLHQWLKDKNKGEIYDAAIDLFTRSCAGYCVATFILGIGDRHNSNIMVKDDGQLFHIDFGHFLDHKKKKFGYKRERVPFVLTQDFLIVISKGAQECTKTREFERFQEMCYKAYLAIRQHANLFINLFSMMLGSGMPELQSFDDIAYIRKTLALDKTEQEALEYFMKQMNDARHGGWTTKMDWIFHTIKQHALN
T1 sequence (P27986 whole entry partner): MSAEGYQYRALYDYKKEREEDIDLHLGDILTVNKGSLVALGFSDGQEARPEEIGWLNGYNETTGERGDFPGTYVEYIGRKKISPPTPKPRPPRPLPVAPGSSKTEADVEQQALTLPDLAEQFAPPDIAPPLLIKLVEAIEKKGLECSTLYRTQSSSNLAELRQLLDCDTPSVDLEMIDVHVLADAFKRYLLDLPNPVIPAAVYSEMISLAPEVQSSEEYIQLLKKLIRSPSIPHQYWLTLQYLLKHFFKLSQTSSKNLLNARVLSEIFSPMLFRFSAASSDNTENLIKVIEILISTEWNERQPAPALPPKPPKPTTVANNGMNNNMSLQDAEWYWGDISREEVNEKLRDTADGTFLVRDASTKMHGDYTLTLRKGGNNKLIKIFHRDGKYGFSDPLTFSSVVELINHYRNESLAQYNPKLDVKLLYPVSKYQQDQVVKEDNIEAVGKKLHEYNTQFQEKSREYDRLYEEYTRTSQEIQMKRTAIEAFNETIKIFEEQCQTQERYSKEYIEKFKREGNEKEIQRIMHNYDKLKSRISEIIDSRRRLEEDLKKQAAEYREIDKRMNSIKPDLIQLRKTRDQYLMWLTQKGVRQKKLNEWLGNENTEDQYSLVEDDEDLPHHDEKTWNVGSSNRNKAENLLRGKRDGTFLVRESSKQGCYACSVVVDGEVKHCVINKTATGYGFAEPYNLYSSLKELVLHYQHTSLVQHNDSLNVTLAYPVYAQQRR

SMILES | IC50 (EGF stimulation) | T47D pAKT S473 HTRF IC50 (H1047R): T47D (H1047R) selectivity over SKBR3 (WT) [1] | IC50 [2] | T47D pAKT S473 HTRF IC50 (H1047R): T47D (H1047R) selectivity over SKBR3 (WT) [3]
Cc1cc([C@H](C)Nc2ccccc2C(=O)O)c2nc(-n3cc(C(N)=O)c4ccccc43)cc(=O)n2c1 [Compound 772] | > 2000 nM | C (C denotes ≤5-fold) |  | 
Cc1cc([C@H](C)Nc2ccccc2C(=O)O)c2nc(-c3cnc(C#N)c(Cl)c3)c(C)c(=O)n2c1 (single isomer, unassigned) [Compound 978] | < 100 nM | A (A denotes >20-fold) |  | 
CNc1nn(C)c2ccc(-c3cc(=O)n4cc(C)cc(C(C)Nc5ccccc5C(=O)O)c4n3)cc12 (stereo not drawn) [Compound 758] | 100 to 500 nM | A (A denotes >20-fold) |  | 
Cc1cc(C(C)Nc2ccccc2C(=O)O)c2nc(-c3cc[nH]c(=O)c3)cc(=O)n2c1 (stereo not drawn) [Compound 380] |  |  | > 2000 nM | C (C denotes ≤5-fold)
CCn1nc(N)c2c(C)c(-c3cc(=O)n4cc(C)cc([C@H](C)Nc5ccccc5C(=O)O)c4n3)ccc21 [Compound 723] | > 2000 nM | C (C denotes ≤5-fold) |  | 
Cc1cc([C@@H](C)Nc2ccccc2C(=O)O)c2nc(-c3ccc(C#N)nc3)c(C)c(=O)n2c1 (single isomer, unassigned) [Compound 975] | < 100 nM | A (A denotes >20-fold) |  | 
Cc1cc([C@@H](C)Nc2ccccc2C(=O)O)c2nc(-c3ccc4[nH]c(=O)[nH]c4c3)cc(=O)n2c1 [Compound 499] |  |  | 100 to 500 nM | A (A denotes >20-fold)
Cc1cc(C(C)Nc2ccccc2C(=O)O)c2nc(-c3ccnc(C)c3)c(C)c(=O)n2c1 (stereo not drawn) [Compound 1202] |  |  |  | A (A denotes >20-fold)
Cc1cc(C(C)Nc2ccccc2C(=O)O)c2nc(-c3cccnc3)cc(=O)n2c1 (stereo not drawn) [Compound 416, 2-((1-(7-methyl-4-oxo-2-(pyridin-3-yl)-4H-pyrido[1,2-a]pyrimidin-9-yl)ethyl)amino)benzoic acid trifluoroacetate] |  |  | 100 to 500 nM | A (A denotes >20-fold)
CC(=O)N=S(C)(=O)c1ccccc1N[C@@H](C)c1cc(C)cn2c(=O)cc(N3CCOCC3)nc12 (stereo partly drawn) [Compound 828] | 500 to 2000 nM | B (B denotes 20-fold≥value>5-fold) |  | 
Cc1cc([C@H](C)N[C@@H]2CCCC[C@@H]2C(=O)O)c2nc(N3CCOCC3)cc(=O)n2c1 [Compound 906] | > 2000 nM | C (C denotes ≤5-fold) |  | 
Cc1cc([C@H](C)Nc2ccccc2C(=O)O)c2nc(-c3ccc(C#N)nc3)c(C)c(=O)n2c1 [Compound 976] | > 2000 nM | C (C denotes ≤5-fold) |  | 
Cc1cc([C@H](C)Nc2ccccc2C(=O)O)c2nc(-c3cnc4cc(O)ccn34)cc(=O)n2c1 [Compound 812] | > 2000 nM | C (C denotes ≤5-fold) |  | 
Cc1cc([C@@H](C)Nc2ccccc2C(=O)O)c2nc(N3C[C@H](C)C[C@H](C(F)F)C3)cc(=O)n2c1 [Compound 868] | 500 to 2000 nM | B (B denotes 20-fold≥value>5-fold) |  | 
Cc1cc([C@H](C)Nc2ccccc2C(=O)O)c2nc(-c3ccc4[nH]cnc4c3)cc(=O)n2c1 [Compound 517] |  |  | > 2000 nM | C (C denotes ≤5-fold)
Cc1cc([C@H](C)Nc2ccccc2C(=O)O)c2nc(-c3cc[nH]c(=O)c3)cc(=O)n2c1 [Compound 462] |  |  | > 2000 nM | C (C denotes ≤5-fold)
Cc1cc([C@@H](C)Nc2ccccc2C(=O)O)c2nc(-c3ccc4c(c3)c(C(F)(F)F)nn4C)cc(=O)n2c1 [Compound 737] | 100 to 500 nM | A (A denotes >20-fold) |  | 
Cc1cc([C@@H](C)Nc2ccccc2C)c2nc(N3CCOCC3)cc(=O)n2c1 [Compound 248] |  |  | < 100 nM | C (C denotes ≤5-fold)
Cc1cc([C@H](C)Nc2ccccc2S(N)(=O)=O)c2nc(-c3ccc(F)c(C#N)c3)c(C)c(=O)n2c1 [Compound 1032] | > 2000 nM | C (C denotes ≤5-fold) |  | 
Cc1cc([C@@H](C)Nc2cccc3[nH]nnc23)c2nc(N3CCOCC3)cc(=O)n2c1 [Compound 744] |  | B (B denotes 20-fold≥value>5-fold) |  | 
Cc1cc(C(C)Nc2ccccc2C(=O)O)c2nc(-c3ccc4c(c(N)nn4C)c3C)c(C)c(=O)n2c1 (stereo not drawn) [Compound 720] | 500 to 2000 nM | B (B denotes 20-fold≥value>5-fold) |  | 

SMILES | IC50 (EGF stimulation) | T47D pAKT S473 HTRF IC50 (H1047R): T47D (H1047R) selectivity over SKBR3 (WT) [1] | IC50 [2] | T47D pAKT S473 HTRF IC50 (H1047R): T47D (H1047R) selectivity over SKBR3 (WT) [3]
Cc1cc(C(C)Nc2ccccc2C(=O)O)c2nc(-c3ccncc3)cc(=O)n2c1 (single isomer, unassigned) [Compound 268] |  |  | > 2000 nM | C (C denotes ≤5-fold)
Cc1cc([C@@H](C)Nc2ccccc2C(=O)O)c2nc(-c3ccc4c(C)cn(C)c4c3)c(C)c(=O)n2c1 [Compound 984] | < 100 nM | A (A denotes >20-fold) |  | 
Cc1cc([C@H](C)Nc2ccccc2C(=O)NS(C)(=O)=O)c2cc(-c3cccc(F)c3)c(C)c(=O)n2c1 [Compound 1351] |  |  |  | C (C denotes ≤5-fold)
CC(=O)c1ccc(-c2cc(=O)n3cc(C)cc([C@H](C)Nc4ccccc4C(=O)O)c3n2)cc1 [Compound 661] | > 2000 nM | C (C denotes ≤5-fold) |  | 
Cc1cc([C@@H](C)Nc2ccccc2C(=O)O)c2nc(C3CCOCC3)c(C)c(=O)n2c1 [Compound 1055] | 100 to 500 nM | A (A denotes >20-fold) |  | 
Cc1cc([C@H](C)Nc2ccccc2S(N)(=O)=O)c2nc(N3C[C@@H](C)O[C@@H](C)C3)cc(=O)n2c1 [Compound 731] | > 2000 nM | C (C denotes ≤5-fold) |  | 
Cc1cc(C(C)Nc2ccccc2C(=O)O)c2nc(C3CCC(C)CC3)cc(=O)n2c1 (stereo not drawn) [Compound 339] |  |  |  | C (C denotes ≤5-fold)
CC#Cc1nc2c(C(C)Nc3ccccc3C(=O)O)cc(C)cn2c(=O)c1C (stereo not drawn) [Compound 1185] | 500 to 2000 nM |  |  | B (B denotes 20-fold≥value>5-fold)
Cc1cc([C@H](C)Nc2cccc(F)c2C(=O)O)c2nc(N3CCOCC3)cc(=O)n2c1 [Compound 331] |  |  | > 2000 nM | C (C denotes ≤5-fold)
Cc1cc(C(C)Nc2ccccc2C(=O)O)c2nc(N3CCC4(CC3)COC4)cc(=O)n2c1 (stereo not drawn) [Compound 471] |  |  | 500 to 2000 nM | B (B denotes 20-fold≥value>5-fold)
Cc1cc(C(C)Nc2ccccc2C(N)=O)c2nc(-c3ccnc(C4CC4)c3)c(C)c(=O)n2c1 (stereo not drawn) [Compound 1063] | 100 to 500 nM |  |  | A (A denotes >20-fold)
Cc1cc([C@H](C)Nc2ccccc2C(=O)O)c2nc(-c3cc(C)c4[nH]c(=O)[nH]c4c3)cc(=O)n2c1 [Compound 498] |  |  | > 2000 nM | C (C denotes ≤5-fold)
COc1ccc(C(=O)O)c(NC(C)c2cc(C)cn3c(=O)cc(N4CCOCC4)nc23)c1 (stereo not drawn) [Compound 323] |  |  | > 2000 nM | C (C denotes ≤5-fold)
Cc1cc([C@@H](C)Nc2ccccc2C(N)=O)c2nc(-c3cnc(C)c(Cl)c3)c(C)c(=O)n2c1 [Compound 1135] | 100 to 500 nM |  |  | A (A denotes >20-fold)
Cc1cc([C@@H](C)Nc2ccccc2-c2ccnnc2)c2nc(C3Cc4ccccc4C3)cc(=O)n2c1 [Compound 718] |  | C (C denotes ≤5-fold) |  | 
Cc1cc(C(C)Nc2ccccc2C(=O)O)c2nc(N3CCSCC3)cc(=O)n2c1 (stereo not drawn) [Compound 240] |  |  | < 100 nM | A (A denotes >20-fold)
Cc1cc(C(C)Nc2ccccc2C(=O)O)c2nc(N3CCC(NS(C)(=O)=O)CC3)cc(=O)n2c1 (stereo not drawn) [Compound 434] |  |  |  | C (C denotes ≤5-fold)
Cc1cc(C(C)Nc2ccccc2C(=O)O)c2nc(-c3ccc4c(c3)c(=O)[nH]n4C)cc(=O)n2c1 (stereo not drawn) [Compound 790] | > 2000 nM | C (C denotes ≤5-fold) |  | 
Cc1cc(C(C)Nc2ccccc2C(=O)O)c2nc(-c3ccc(C(=O)NO)cc3)cc(=O)n2c1 (stereo not drawn) [Compound 487] |  |  | > 2000 nM | C (C denotes ≤5-fold)
Cc1cc(C(C)Nc2ccccc2S(N)(=O)=O)c2nc(N3CCOCC3)cc(=O)n2c1 (stereo not drawn) [Compound 151] |  |  |  | C (C denotes ≤5-fold)
